Laboratory results from US11578074B2, “Nitrogenous heterocyclic compound, preparation method, intermediate, composition, and application” (SHANGHAI PHARMACEUTICALS HOLDING CO., LTD., priority 2017, dated 2023).

Legend:
[1] = system: BT-474 (human breast cancer cell); test: In vitro proliferation inhibition assay of cell lines (CellTiter-Glo), BT-474; type: cell-based; conditions: BT-474 cells, 72 hours
Protocol: (§1) In Vitro Proliferation Inhibition Assay of Cell Lines
1. […] 2. Dosing to the cells: on the second day of the experiment, the microplate was taken out from the incubator, and 10 μL of 10× compound was added to each well of the microplate, setting 2 duplicate wells for each drug concentration and 9 dosing concentrations for each compound. According to different cell lines, the initial concentration of each compound was different. Upon completion of addition, the microplate was placed under the conditions of 37° C. and 5% CO2 for 72 hours. 3. Data acquisition: the microplate was taken out from the incubator and was allowed to equilibrate at room temperature for 30 minutes. 100 μL of CellTiter-Glo® Luminescent Cell Viability Assay reaction solution which had been equilibrated at room temperature was added to each well, and the reaction solution was shaken at 1300 rpm for 2 minutes at room temperature. After that, the microplate was placed in HERAEUS Multifuge X1R centrifuge, centrifuged at 2000 rpm for 1 minute, and allowed to equilibrate at room temperature for 10 minutes. The fluorescence signal value was measured on EnVision™.

EGFR kinase = EGFR kinase (Homo sapiens, UniProt P00533); test: EGFR/ErbB2 enzymatic experiment (HTRF kinEASE-TK), EGFR; type: biochemical; conditions: EGFR kinase 0.06 units/μL, ATP 1.65 μM; read-out: Kinase IC50 (nM) in vitro EGFR
EGFR kinase, sequence (P00533 25-1210): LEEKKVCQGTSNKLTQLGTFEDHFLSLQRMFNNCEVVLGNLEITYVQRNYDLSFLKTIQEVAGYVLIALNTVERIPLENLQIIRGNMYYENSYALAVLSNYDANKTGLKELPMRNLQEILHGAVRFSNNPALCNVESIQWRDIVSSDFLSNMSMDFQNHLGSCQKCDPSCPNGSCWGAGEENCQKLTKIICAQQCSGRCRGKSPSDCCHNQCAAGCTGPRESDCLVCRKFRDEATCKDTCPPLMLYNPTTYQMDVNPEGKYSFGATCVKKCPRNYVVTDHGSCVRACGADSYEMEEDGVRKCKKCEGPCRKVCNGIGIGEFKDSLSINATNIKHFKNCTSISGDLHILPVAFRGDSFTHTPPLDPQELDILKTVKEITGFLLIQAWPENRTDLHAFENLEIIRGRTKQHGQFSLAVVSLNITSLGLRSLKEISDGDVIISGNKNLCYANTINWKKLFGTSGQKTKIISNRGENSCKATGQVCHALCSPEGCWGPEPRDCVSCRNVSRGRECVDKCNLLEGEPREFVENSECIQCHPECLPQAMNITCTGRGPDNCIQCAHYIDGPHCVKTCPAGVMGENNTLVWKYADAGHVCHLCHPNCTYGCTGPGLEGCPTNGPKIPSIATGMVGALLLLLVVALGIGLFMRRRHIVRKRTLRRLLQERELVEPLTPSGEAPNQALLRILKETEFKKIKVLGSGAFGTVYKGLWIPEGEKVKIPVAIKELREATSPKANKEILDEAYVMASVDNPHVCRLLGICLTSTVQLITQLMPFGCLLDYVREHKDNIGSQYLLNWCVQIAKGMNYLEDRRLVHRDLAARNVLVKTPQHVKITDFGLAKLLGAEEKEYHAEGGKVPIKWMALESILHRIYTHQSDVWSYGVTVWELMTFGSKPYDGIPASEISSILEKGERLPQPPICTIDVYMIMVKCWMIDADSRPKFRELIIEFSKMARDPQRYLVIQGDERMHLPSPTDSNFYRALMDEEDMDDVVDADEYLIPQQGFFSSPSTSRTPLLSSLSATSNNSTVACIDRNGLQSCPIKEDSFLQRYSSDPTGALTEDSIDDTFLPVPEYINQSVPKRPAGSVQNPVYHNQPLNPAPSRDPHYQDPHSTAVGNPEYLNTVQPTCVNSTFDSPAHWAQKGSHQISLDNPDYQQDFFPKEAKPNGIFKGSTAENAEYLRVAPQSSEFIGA
Protocol: (§2) EGFR/ErbB2 Enzymatic Experiment
(§3) Firstly, 1× reaction buffer required for the kinase was prepared, then 5× Enzymatic buffer (HEPES 20 mM pH 7.0, NaN3 0.1%, BSA 0.05%, sodium orthovanadate 0.5 mM) was diluted in HTRF kinEASE-TK kit by 1 time with deionized water, and 50 nM Supplement Enzymatic buffer (SEB REAGENT), 1 mM MnCl2, 5 mM MfCl2, 1 mM DTT were added. Secondly, 5× compound was prepared, and 10 mM test compound storage solution was diluted in multiple steps with DMSO in a 96-well compound plate to prepare 100× compound as an initial concentration, which was then used as the first concentration to carry out a 3-fold gradient dilution with DMSO to obtain a total of 10 concentrations. Then 1 μL of gradient diluent was added to 19 μL of 1× reaction buffer to prepare 5× compound for later use. Then 2 μL of 5× compound was transferred from the 96-well plate into a 384-well plate. To the compound-free control wells was added 2 μL of the following liquid: 19 μL of 1× reaction buffer with addition of 1 μL of DMSO. To the blank control well was added 2 μL of 250 mM EDTA. […] In the fourth step of reaction termination, HTRF Detection buffer was used to prepare a mixture of 2×TK Antibody-EU (K) and Sa-XL665, and the amount of TK Antibody-EU (K) was 5 μL per well. After the enzyme reaction was carried out for 30 minutes, 10 μL of the above liquid was added to a 384-well plate, and the reaction was carried out at room temperature for 1 hour. […] RFU665 nM and RFU620 nM were measured, and RFU665 nM/RFU620 nM×10000 was used as final data for analysis.

[2] = system: N87 (human gastric cancer cell NCI-N87); test: In vitro proliferation inhibition assay of cell lines (CellTiter-Glo), N87; type: cell-based; conditions: N87 cells, 72 hours
Protocol: as §1
1. Cell culture and inoculation: on the first day of the experiment, normal cultured cells were taken, and in the exponential growth state, after digestion and dispersion, the cell density was then adjusted to 8.8×10^4 cells/mL for BT-474, and 6.6×10^4 cells/mL for N87, and 90 μL of which were inoculated to each well of a 96-well cell culture plate; after the inoculation was completed, the microplate was cultured under the conditions of 37° C. and 5% CO2 overnight. 2. Dosing to the cells: on the second day of the experiment, the microplate was taken out from the incubator, and 10 μL of 10× compound was added to each well of the microplate, setting 2 duplicate wells for each drug concentration and 9 dosing concentrations for each compound. According to different cell lines, the initial concentration of each compound was different. Upon completion of addition, the microplate was placed under the conditions of 37° C. and 5% CO2 for 72 hours. 3. Data acquisition: the microplate was taken out from the incubator and was allowed to equilibrate at room temperature for 30 minutes. 100 μL of CellTiter-Glo® Luminescent Cell Viability Assay reaction solution which had been equilibrated at room temperature was added to each well, and the reaction solution was shaken at 1300 rpm for 2 minutes at room temperature. After that, the microplate was placed in HERAEUS Multifuge X1R centrifuge, centrifuged at 2000 rpm for 1 minute, and allowed to equilibrate at room temperature for 10 minutes. The fluorescence signal value was measured on EnVision™.

ErbB2 kinase = target: T1, ErbB2 kinase (Homo sapiens, UniProt P04626); test: EGFR/ErbB2 enzymatic experiment (HTRF kinEASE-TK), ErbB2; type: biochemical; conditions: ErbB2 kinase 0.06 ng/μL, ATP 4 μM; read-out: Kinase IC50 (nM) in vitro ErbB2
T1 construct: The final concentration of ErbB2 kinase was 0.06 ng/μL
T1 sequence (P04626 23-1255): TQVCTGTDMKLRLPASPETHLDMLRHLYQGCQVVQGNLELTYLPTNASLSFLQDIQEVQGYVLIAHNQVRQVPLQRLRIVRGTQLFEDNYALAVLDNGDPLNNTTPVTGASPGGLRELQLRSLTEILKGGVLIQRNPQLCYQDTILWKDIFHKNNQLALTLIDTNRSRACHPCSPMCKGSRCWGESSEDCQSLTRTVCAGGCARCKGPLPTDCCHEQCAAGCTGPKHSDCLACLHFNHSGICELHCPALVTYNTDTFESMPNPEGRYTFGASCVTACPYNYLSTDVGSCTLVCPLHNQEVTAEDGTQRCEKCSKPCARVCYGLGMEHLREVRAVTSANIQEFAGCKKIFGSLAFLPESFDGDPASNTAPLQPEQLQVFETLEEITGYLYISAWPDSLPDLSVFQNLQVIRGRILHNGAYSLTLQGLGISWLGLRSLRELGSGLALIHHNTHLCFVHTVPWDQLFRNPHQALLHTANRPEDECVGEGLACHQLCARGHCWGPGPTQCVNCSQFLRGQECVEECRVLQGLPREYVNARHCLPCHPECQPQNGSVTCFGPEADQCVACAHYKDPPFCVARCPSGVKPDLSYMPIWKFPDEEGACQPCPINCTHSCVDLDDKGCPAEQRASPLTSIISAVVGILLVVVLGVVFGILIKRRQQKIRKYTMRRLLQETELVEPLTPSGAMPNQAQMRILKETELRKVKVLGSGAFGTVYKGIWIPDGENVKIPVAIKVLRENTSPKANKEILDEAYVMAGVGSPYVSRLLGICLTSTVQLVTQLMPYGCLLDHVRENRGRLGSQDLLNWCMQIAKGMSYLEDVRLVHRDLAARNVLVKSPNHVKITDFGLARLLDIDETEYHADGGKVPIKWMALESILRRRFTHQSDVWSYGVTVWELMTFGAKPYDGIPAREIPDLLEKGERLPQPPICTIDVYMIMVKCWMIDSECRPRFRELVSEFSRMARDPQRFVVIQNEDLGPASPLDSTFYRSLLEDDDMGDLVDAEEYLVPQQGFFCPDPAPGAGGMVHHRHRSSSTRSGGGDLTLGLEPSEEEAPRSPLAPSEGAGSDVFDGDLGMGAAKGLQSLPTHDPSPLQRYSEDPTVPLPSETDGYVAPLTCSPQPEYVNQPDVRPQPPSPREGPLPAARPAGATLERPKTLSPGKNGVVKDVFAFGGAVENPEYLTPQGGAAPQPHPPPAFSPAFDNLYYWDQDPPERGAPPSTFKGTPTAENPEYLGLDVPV
Protocol: as §2, §3

Structure (SMILES) | IC50 [1] | IC50 (EGFR kinase) | IC50 [2] | IC50 (ErbB2 kinase)
Cc1cc(Nc2ncnc3ccc(NC(=O)/C=C/[C@H]4CCCN4C)cc23)ccc1Oc1cnc2ccnn2c1 | 2.65 nM | 0.757 nM | 1.6 nM | 1.09 nM
Cc1cc(Nc2ncnc3ccc(NC(=O)/C=C/[C@H]4CCCN4C)cc23)ccc1Oc1ccn2cnnc2c1 [Final product of Embodiment 25] | 50.7 nM | 23.4 nM | 68.2 nM | 8.47 nM
C=CC(=O)N1CCC[C@@H](Nc2ccc3ncnc(Nc4ccc(Oc5cc6nncn6cn5)c(C)c4)c3c2)C1 [Final product of Embodiment 7, (R)-1-(3-((4-((4-([1,2,4]triazolo[4,3-c]pyrimidin-7-yloxy)-3-methylphenyl)amino)quinazolin-6-yl)amino)piperidin-1-yl)propan-2-en-1-one] | 49.5 nM | 7.09 nM | 65.5 nM | 0.851 nM
CCOc1cc2ncc(C#N)c(Nc3ccc(OCc4ccccn4)c(Cl)c3)c2cc1NC(=O)/C=C/[C@H]1CCCN1C [drawing 239, reference compound] | 2.56 nM | – | 1.2 nM | 1.67 nM
Cc1cc(Nc2ncnc3ccc(/C=C/C(=O)NC4CC4)cc23)ccc1Oc1cc2nncn2cn1 [Final product of Embodiment 16, (E)-3-(4-((4-([1,2,4]triazolo[4,3-c]pyrimidin-7-yloxy)-3-methylphenyl)amino)quinazolin-6-yl)-N-cyclopropylacrylamide] | 256 nM | 33.7 nM | 692 nM | 22 nM
Cc1cc(Nc2ncnc3ccc(/C=C/C(=O)N(C)C)cc23)ccc1Oc1cc2nncn2cn1 [Final product of Embodiment 15, (E)-3-(4-((4-([1,2,4]triazolo[4,3-c]pyrimidin-7-yloxy)-3-methylphenyl)amino)quinazolin-6-yl)-N,N-dimethylacrylamide] | 162 nM | 156 nM | 301 nM | 17.5 nM
CCOc1cc2ncc(C#N)c(Nc3ccc(OCc4ccccn4)c(Cl)c3)c2cc1NC(=O)/C=C/CN(C)C [drawing 240, reference compound] | – | – | 0.82 nM | –
Cc1cc(Nc2ncnc3ccc(NC(=O)/C=C/[C@H]4CCCN4C)cc23)ccc1Oc1ccc2nc[nH]c2c1 | 15.4 nM | 1.5 nM | 22.6 nM | 0.689 nM
COCCOc1cc2ncnc(Nc3ccc(Oc4cc5nncn5cn4)c(C)c3)c2cc1NC(=O)/C=C/[C@H]1CCCN1C [Final product of Embodiment 36] | 1.89 nM | 0.53 nM | 1.64 nM | 1.1 nM
Cc1cc(Nc2ncnc3ccc(NC(=O)/C=C/[C@H]4CCCN4C)cc23)ccc1Oc1cnn2cnnc2c1 [Final product of Embodiment 29, (R,E)-N-(4-((4-([1,2,4]triazolo[4,3-b]pyridazin-7-yloxy)-3-methylphenyl)amino)quinazolin-6-yl)-3-(1-methylpyrrolidin-2-yl) acrylamide] | 46.6 nM | 20.5 nM | 60.4 nM | 15.2 nM

More lines, now with the values ahead:

IC50 [1] | IC50 (EGFR kinase) | IC50 [2] | IC50 (ErbB2 kinase) | Structure (SMILES)
17.7 nM | 0.514 nM | 18.9 nM | 2.67 nM | COCCOc1cc2ncnc(Nc3ccc(Oc4cc5nncn5cn4)c(C)c3)c2cc1NC(=O)/C=C/[C@H]1CCCN1 [Final product of Embodiment 35]
– | – | 10 nM | – | Cc1cc(Nc2ncnc3ccc(NC(=O)/C=C/[C@@H]4CCCN4C)cc23)ccc1Oc1cc2nncn2cn1 [Final product of Embodiment 1-97, (S,E)-N-(4-((4-([1,2,4]triazolo[4,3-c]pyrimidin-7-yloxy)-3-methylphenyl)amino)quinazolin-6-yl)-3-(1-methylpyrrolidin-2-yl)acrylamide]
54.6 nM | 3.46 nM | 94 nM | 8.25 nM | Cc1cc(Nc2c(C#N)cnc3ccc(NC(=O)/C=C/[C@H]4CCCN4)cc23)ccc1Oc1cc2nncn2cn1 [Final product of Embodiment 21, (R,E)-N-(4-((4-([1,2,4]triazolo[4,3-c]pyrimidin-7-yloxy)-3-methylphenyl)amino)-3-cyanoquinolin-6-yl)-3-(pyrrolidin-2-yl)acrylamide]
25.7 nM | 2.21 nM | 77.5 nM | 1.61 nM | Cc1cc(Nc2ncnc3ccc(NC(=O)/C=C/C4COCCN4)cc23)ccc1Oc1cc2nncn2cn1 (stereo not shown) [Final product of Embodiment 27, (E)-N-(4-((4-([1,2,4]triazolo[4,3-c]pyrimidin-7-yloxy)-3-methylphenyl)amino)quinazolin-6-yl)-3-(morpholin-3-yl)acrylamide]
11 nM | 5.29 nM | 33.4 nM | 3.25 nM | Cc1cc(Nc2ncnc3ccc(NC(=O)C=CC4COCCN4)cc23)ccc1Oc1cc2nncn2cn1 (stereo in doubt) [Final product of Embodiment 28, (E)-N-(4-((4-([1,2,4]triazolo[4,3-c]pyrimidin-7-yloxy)-3-methylphenyl)amino)quinazolin-6-yl)-3-(morpholin-3-yl)acrylamide]
76 nM | 65.2 nM | 66.5 nM | 220 nM | Cc1cc(Nc2c(C#N)cnc3ccc(NC(=O)/C=C/[C@H]4CCCN4C)cc23)ccc1Oc1cnc2c(cnn2C)c1 [Final product of Embodiment 31]
9.62 nM | 13.8 nM | 18.8 nM | 7.98 nM | C=CC(=O)Nc1ccc2ncc(C#N)c(Nc3ccc(Oc4cc5nncn5cn4)c(C)c3)c2c1 [Final product of Embodiment 9, N-(4-((4-([1,2,4]triazolo[4,3-c]pyrimidin-7-yloxy)-3-methylphenyl)amino)-3-cyanoquinolin-6-yl)acrylamide]
